In patent US9598407B2, “Antibacterial piperidinyl substituted 3,4-dihydro-1H-[1,8]naphthyridinones” (JANSSEN SCIENCES IRELAND UC, priority 2011, dated 2017):
Converted amounts (≈) assume the structure as drawn.

Tests used:
[1] = target: S. aureus ATCC 29213 FabI (Staphylococcus aureus (strain MRSA252), UniProt Q6GI75); assay: Staphylococcus aureus FabI enzyme inhibition assay; assay type: biochemical; details: 30 minutes at room temperature, pH 6.5
Procedure: D.1 FabI Enzyme Inhibition: Staphylococcus aureus FabI Enzyme Inhibition Assay
FabI enzyme inhibition assays were carried out in half-area, 384-well microtitre plates. Compounds were evaluated in 40-μl assay mixtures containing 100 mM NaADA, pH 6.5 (ADA=N-[2-acetamido]-2iminodiacetic acid), 250 μM crotonoyl-CoA, 625 μM NADH and 50 μg/ml S. aureus ATCC 29213 FabI Inhibitors were typically varied over the range of 50 to 0.39 μM. The reaction mixtures were incubated for 30 minutes at room temperature and the reaction was stopped by adding 200 mM Tris buffer (pH 9.0) to create a pH-shift. The consumption of NADH was monitored by measuring the change in absorbance at […]. By comparing sample readings to those of negative (absence of compound) and positive (absence of enzyme) controls, the percent inhibition of enzymatic activity of the compounds was determined A best-fit curve is fitted by a minimum of squares method. From this an IC50-value (expressed in μg/ml), resulting in 50% inhibition of enzymatic activity, was obtained.

Human HelaM cells = assay: Cytotoxicity MTT assay (TOX HELAM 222.125); assay type: cell-based; details: 72 hours
Procedure: Cytotoxicity of the compounds was evaluated using the MTT assay. Human HelaM cells grown in 96-well plates were exposed to serial dilutions of the tested compounds (final volume of 0.2 ml) and incubated for 72 hours at 37° C. and 5% CO2 Inhibitors are typically varied over the range of 25 to 0.8 μM. The final DMSO concentration in the assay is 0.5%. MTT (3-(4,5-Dimethylthiazol-2-yl)-2,5-diphenyltetrazolium bromide, a tetrazole) was added and reduced to purple formazan only in living cells. Solubilization of the formazan crystals was achieved by adding 100 μl 2-propanol. Cell viability was determined by measuring the absorbance of the reduced formazan, giving a purple color, at 540 nm and 690 nm. The absorbance measured at 690 nm was automatically subtracted from the absorbance at 540 nm, to eliminate the effects of non-specific absorption. The percent cytotoxicity achieved by the compounds was calculated according to standard methods. Cytotoxicity is reported as CC50, the concentration that causes a 50% reduction in cell viability.
The results are depicted in the table D2 below (TOX HELAM).

S. aureus = assay: Antibacterial susceptibility testing, IC90 with 10% human serum (STA + 10% HS 361.169); assay type: cell-based, Staphylococcus aureus; details: S. aureus with 10% human serum
Procedure: (§1) The following bacteria were used: Staphylococcus aureus ATCC 29213, methicillin-resistant Staphylococcus aureus (MRSA) ATCC 700788 and Escherichia coli ATCC 35218. The bacteria used in this study were grown overnight in flasks containing 100 ml Mueller-Hinton broth (Difco cat. nr. 0757-17) in sterile de-ionized water, with shaking, at 37° C. Stocks were store at −70° C. until use.
(§2) Bacteria were incubated on a tryptic soy agar plate containing 5% sheep blood (Becton Dickinson cat. nr. 254053) for 18-24 hours at 35° C. in aerobic conditions (first passage). For the second passage, fresh Mueller-Hinton broth is inoculated with 5-10 colonies and grown overnight at 35° C. until turbidity (reaching log-phase) in aerobic conditions is reached. The bacterial suspension is then adjusted to 0.5 McFarland density and further diluted 1:100 in Mueller Hinton broth medium. This is used as inoculum.
(§3) MIC assays were performed by the broth microdilution method in a 96-well format (flat-bottom microtitre plates) with a final volume of 0.1 ml Mueller Hinton broth containing two-fold serial dilutions of compounds and inoculated with 5×10^5 CFU/ml of bacteria (standard inoculum size according to CLSI guidelines). Inhibitors are typically varied over the range of 63 to 0.49 μM. The final DMSO concentration in the assay was 1.25% (maximum tolerable DMSO concentration=6%). In the assays where the effect of human serum on the activity of the compounds against S. aureus was tested, human serum was added at a final concentration of 10%. The plates were incubated at 35° C. for 16-20 hours. At the end of incubation the bacterial growth was quantified fluorometrically. For this, resazurin was added to all wells and the plates were re-incubated. The incubation time is dependent on the type of bacteria. A change in color from blue to pink indicated the growth of bacteria. The fluorescence was read in computer-controlled fluorometer (Fluoroskan Ascent FL, Labsystems) at an excitation wavelength 540 nm and an emission wavelength of 590 nm. The % growth inhibition achieved by the compounds was calculated according to standard methods. The IC90 (expressed in μg/ml) was defined as the 90% inhibitory concentration for bacterial growth. A panel of reference compounds were simultaneously tested for QC approval.
The results are depicted in the table D2 below (STA+10% HS).

[2] = test system: Staphylococcus aureus ATCC 29213; assay: Antibacterial susceptibility testing, IC90 determination (STA 361.159); assay type: cell-based; details: STA ATCC 29213; 90% inhibitory concentration for bacterial growth
Procedure: D.2 In Vitro Method for Testing Compounds for Antibacterial Activity Against Various Bacterial Strains Preparation of Bacterial Suspensions for Susceptibility Testing
as §1, §2
Antibacterial Susceptibility Testing: IC90 Determination
as §3

M. catarrhalis ATCC 8176 = assay: Antimicrobial spectrum, CLSI broth microdilution MIC; assay type: cell-based, Moraxella catarrhalis; details: b-lactamase negative, MHB
Procedure: (§4) Minimum Inhibitory Concentrations (MICs) were determined in accordance with the Clinical and Laboratory Standards Institute (CLSI) methodology against aerobic bacteria (CLSI M07-A8) (see Clinical and Laboratory Standards Institute. 2009. Methods for dilution antimicrobial susceptibility tests for bacteria that grow aerobically. CLSI document M07-A8, Vol. 29, No. 2.) by the broth microdilution method with cation-adjusted Mueller-Hinton broth (CA-MHB) medium for the majority of organisms, except for Haemophilus influenza, where Haemophilis test medium (HTM) broth was used. Descriptions of the individual organisms can be found in the table. Where possible, ATCC standard strains were tested.
(§5) The inoculum density for the susceptibility testing was standardized to give a final inoculum of approximately 5×10^5 CFU/mL.
(§6) Stock solutions of the compounds were prepared in DMSO at concentrations of 1 mg/mL. Linezolid was prepared in DMSO at a concentration of 2 mg/mL. Stock solutions of all compounds were diluted into CA-MHB to give a range of two-fold dilutions, depending upon the sensitivity of the organism being tested.

H. influenza ATCC 49247 = assay: as above; assay type: cell-based, Haemophilus influenzae; details: HTM broth
Procedure: as §4, §5, §6

S. aureus ATCC 29213 = assay: as above; assay type: cell-based, Staphylococcus aureus; details: reference strain MSSA, MHB
Procedure: as §4, §5, §6

S. aureus ATCC 43300 = assay: as above; assay type: cell-based, Staphylococcus aureus; details: reference strain MRSA, MHB
Procedure: as §4, §5, §6

S. aureus NRS119 = assay: as above; assay type: cell-based, Staphylococcus aureus; details: LZD-R, MHB
Procedure: as §4, §5, §6

S. aureus NRS120 = assay: as above; assay type: cell-based, Staphylococcus aureus; details: LZD-R, MHB
Procedure: as §4, §5, §6

S.aureus NRS121 = assay: as above; assay type: cell-based, Staphylococcus aureus; details: LZD-R, MHB
Procedure: as §4, §5, §6

[3] = In vivo pharmacokinetic and oral bioavailability; details: male Swiss mice
Procedure: The in vivo pharmacokinetics and oral bioavailability of the compound of the examples was/is investigated in male Swiss mice (fed) following single intravenous (i.v.) bolus and oral (p.o.) administration. For the i.v. and p.o. solution formulations, the compound was/is dissolved in a 20% HP-β-CD solution. The pH of the formulations was/is around pH 4. All i.v. formulations were isotonic.

E. coli ATCC 25922 = assay: Antimicrobial spectrum, CLSI broth microdilution MIC; assay type: cell-based, Escherichia coli; details: reference strain, MHB
Procedure: as §4, §5, §6

E. coli tolC mutant = assay: as above; assay type: cell-based, Escherichia coli; details: MHB
Procedure: as §4, §5, §6

## O=C1CCc2cc(/C=C/C(=O)N3CCC(Cc4ccccc4)CC3)cnc2N1 [compound 12]
[1]
  FabI IC50: 0.31 µg/mL
Human HelaM cells
  TOX HELAM (222.125) CC50: >9.431 µg/mL
S. aureus
  STA + 10% HS (361.169) IC90: 2.09 µg/mL
[2]
  STA (361.159) IC90: 1.19 µg/mL

## O=C1CCc2cc(/C=C/C(=O)N3CCC(Cc4ccccn4)CC3)cnc2N1 [compound 35]
[1]
  FabI IC50: 0.48 µg/mL
Human HelaM cells
  TOX HELAM (222.125) CC50: >9.456 µg/mL
S. aureus
  STA + 10% HS (361.169) IC90: 3.94 µg/mL
[2]
  STA (361.159) IC90: 5.14 µg/mL

## O=C1CCc2cc(/C=C/C(=O)N3CCC(Cc4cccs4)CC3)cnc2N1 [compound 37]
[1]
  FabI IC50: 0.50 µg/mL
M. catarrhalis ATCC 8176
  MIC90: 1 µg/mL (≈ 2.62 µM)
H. influenza ATCC 49247
  MIC90: >8 µg/mL
S. aureus ATCC 29213
  MIC90: 0.125 µg/mL (≈ 0.328 µM)
S. aureus ATCC 43300
  MIC90: 0.125 µg/mL (≈ 0.328 µM)
S. aureus NRS119
  MIC90: 0.125 µg/mL (≈ 0.328 µM)
S. aureus NRS120
  MIC90: 0.125 µg/mL (≈ 0.328 µM)
S.aureus NRS121
  MIC90: 0.125 µg/mL (≈ 0.328 µM)
[3]; i.v., 2.5 mg/kg
  AUC0-inf: 7464 ng·h/mL
  Half life (t1/2): 2.7 h
  Plasma clearance Cl: 5.5 mL/min/kg
  Vdz: 1.3 L/kg
[3]; i.v., 2.5 mg/kg, 20% HP-β-CD solution
  C0: 2929 ng/mL
[3]; p.o. 10 mg/kg vs i.v. 2.5 mg/kg
  Oral bioavailability: 72%
[3]; p.o., 10 mg/kg
  AUC0-inf: 21394 ng·h/mL
  Half life (t1/2): 3.2 h
  Tmax: 2.0 h
[3]; p.o., 10 mg/kg, 20% HP-β-CD solution
  Cmax: 2950 ng/mL
E. coli ATCC 25922
  MIC90: >8 µg/mL
E. coli tolC mutant
  MIC90: >8 µg/mL
Human HelaM cells
  TOX HELAM (222.125) CC50: 19.12 µg/mL
S. aureus
  STA + 10% HS (361.169) IC90: 0.36 µg/mL
[2]
  STA (361.159) IC90: 0.30 µg/mL

## COc1ccccc1CC1=CCN(C(=O)/C=C/c2cnc3c(c2)CCC(=O)N3)CC1 [compound 14]
[1]
  FabI IC50: 1.06 µg/mL
Human HelaM cells
  TOX HELAM (222.125) CC50: >10.1352 µg/mL
S. aureus
  STA + 10% HS (361.169) IC90: 13.06 µg/mL
[2]
  STA (361.159) IC90: 6.93 µg/mL

## O=C1CCc2cc(/C=C/C(=O)N3CC=C(c4ccoc4)CC3)cnc2N1 [compound 10]
[1]
  FabI IC50: 0.48 µg/mL
Human HelaM cells
  TOX HELAM (222.125) CC50: >8.776 µg/mL
S. aureus
  STA + 10% HS (361.169) IC90: 20.34 µg/mL
[2]
  STA (361.159) IC90: 10.43 µg/mL

## COc1ccccc1C1=CCN(C(=O)/C=C/c2cnc3c(c2)CCC(=O)N3)CC1 [compound 2]
[1]
  FabI IC50: 0.32 µg/mL
Human HelaM cells
  TOX HELAM (222.125) CC50: >9.783 µg/mL
S. aureus
  STA + 10% HS (361.169) IC90: 2.99 µg/mL
[2]
  STA (361.159) IC90: 1.97 µg/mL
